Results: paper PMC11418212, “Characterization of four structurally diverse inhibitors of SUR2-containing KATP channels” (Channels, 2024)
“And” between values parts separate entries of the source, which are not always exact repeats. Equal entries are not always repeated. “Also recorded” adds a separate entry of the source. Where two headings read alike, the source gives them in different places.

What was measured:
Type in all cases: cell-based
Kir6.1/SUR2B [1] = molecular target: T1, Kir6.1/SUR2B (Homo sapiens, UniProt O60706); assay: Quantitative thallium flux assay, inhibition, stably transfected T-REx-HEK293 cells
T1 construct: expressed in transfected cells; Kir6.1 tetracycline-inducible, SUR2B constitutive
T1 sequence (O60706 1-1549 isoform O60706-2, species assumed): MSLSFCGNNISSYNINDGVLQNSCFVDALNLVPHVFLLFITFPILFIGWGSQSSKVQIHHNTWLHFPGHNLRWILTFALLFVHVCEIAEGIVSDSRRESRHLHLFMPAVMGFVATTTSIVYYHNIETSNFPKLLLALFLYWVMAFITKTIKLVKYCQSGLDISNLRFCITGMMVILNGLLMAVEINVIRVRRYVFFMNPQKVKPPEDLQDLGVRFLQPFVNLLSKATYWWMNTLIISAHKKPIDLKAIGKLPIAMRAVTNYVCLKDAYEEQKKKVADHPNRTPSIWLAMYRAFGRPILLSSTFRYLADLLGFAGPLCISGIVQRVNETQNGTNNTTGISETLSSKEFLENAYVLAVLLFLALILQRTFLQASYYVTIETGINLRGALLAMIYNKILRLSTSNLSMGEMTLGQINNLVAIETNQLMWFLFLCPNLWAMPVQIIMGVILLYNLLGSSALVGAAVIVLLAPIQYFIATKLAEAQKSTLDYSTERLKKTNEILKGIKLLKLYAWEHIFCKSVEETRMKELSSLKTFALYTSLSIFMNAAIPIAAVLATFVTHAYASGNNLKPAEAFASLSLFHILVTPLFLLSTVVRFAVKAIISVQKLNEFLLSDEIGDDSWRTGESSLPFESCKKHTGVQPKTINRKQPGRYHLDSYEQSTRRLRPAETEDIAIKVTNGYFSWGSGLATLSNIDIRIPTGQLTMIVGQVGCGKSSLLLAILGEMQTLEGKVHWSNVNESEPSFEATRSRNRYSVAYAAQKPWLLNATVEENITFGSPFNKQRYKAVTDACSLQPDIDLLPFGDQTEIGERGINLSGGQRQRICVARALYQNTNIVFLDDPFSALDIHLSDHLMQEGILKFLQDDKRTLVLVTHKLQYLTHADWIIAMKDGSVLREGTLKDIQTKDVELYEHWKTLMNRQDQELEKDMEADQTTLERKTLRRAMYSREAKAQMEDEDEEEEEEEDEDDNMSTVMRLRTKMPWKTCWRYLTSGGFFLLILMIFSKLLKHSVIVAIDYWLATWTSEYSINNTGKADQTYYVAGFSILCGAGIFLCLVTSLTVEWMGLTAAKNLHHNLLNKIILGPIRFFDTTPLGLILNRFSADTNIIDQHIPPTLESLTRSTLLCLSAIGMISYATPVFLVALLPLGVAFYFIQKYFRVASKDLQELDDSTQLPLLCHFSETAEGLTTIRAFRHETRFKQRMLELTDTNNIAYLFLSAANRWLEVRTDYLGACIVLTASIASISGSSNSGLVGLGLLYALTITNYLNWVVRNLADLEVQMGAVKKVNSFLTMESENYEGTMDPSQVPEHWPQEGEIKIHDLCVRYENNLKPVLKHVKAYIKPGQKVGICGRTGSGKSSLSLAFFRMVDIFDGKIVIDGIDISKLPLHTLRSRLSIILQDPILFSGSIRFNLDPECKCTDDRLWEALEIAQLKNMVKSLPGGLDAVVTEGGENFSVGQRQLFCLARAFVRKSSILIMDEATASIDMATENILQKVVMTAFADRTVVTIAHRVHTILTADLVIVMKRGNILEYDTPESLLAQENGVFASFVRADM
T1 sequence (Q15842 whole entry partner, species assumed): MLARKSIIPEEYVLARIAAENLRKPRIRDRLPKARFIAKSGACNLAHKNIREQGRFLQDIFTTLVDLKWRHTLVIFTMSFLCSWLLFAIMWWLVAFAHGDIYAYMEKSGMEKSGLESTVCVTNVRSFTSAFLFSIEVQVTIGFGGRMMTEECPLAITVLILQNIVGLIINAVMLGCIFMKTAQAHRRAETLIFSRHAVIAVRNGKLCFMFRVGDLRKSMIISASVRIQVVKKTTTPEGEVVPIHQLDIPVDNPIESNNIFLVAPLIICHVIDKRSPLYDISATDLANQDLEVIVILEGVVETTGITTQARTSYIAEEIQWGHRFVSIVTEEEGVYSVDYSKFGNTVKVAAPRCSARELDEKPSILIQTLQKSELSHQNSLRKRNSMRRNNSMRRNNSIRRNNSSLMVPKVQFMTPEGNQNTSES

Kir6.1/SUR2B [2] = molecular target: T1, Kir6.1/SUR2B; assay: Whole-cell patch clamp electrophysiology, T-Rex-HEK293-Kir6.1/SUR2B cells; details: 10 µM compound in continued presence of pinacidil (1 μM in Figure 2)
Method: Whole-cell patch clamp electrophysiology experiments were conducted as described previously. Briefly, stably transfected T-Rex-HEK293 cells expressing Kir6.1/SUR2B were seeded at a density of 250,000 cells per 35-mm dish coated with tissue culture-treated polystyrene and incubated at 37°C in a 5% CO2 atmosphere. Whole-cell patch-clamp experiments were initiated 48 h post-seeding. On the day of the experiment, cells were dissociated and seeded onto poly-L-lysine-coated glass coverslips, where they were allowed to recover for at least one hour in a 37°C/5% CO2 incubator prior to the recordings. Patch pipettes with resistances of 2 to 3 MΩ were employed, containing an internal solution composed of 130 mM KCl, 2 mM MgCl2, 1 mM EGTA, 20 mM HEPES-free acid, and 1 mM Na2ADP, adjusted to pH 7.3 with KOH and an osmolarity of 275 mOsmol/kg with sucrose. The extracellular solution consisted of 135 mM NaCl, 5 mM KCl, 2 mM CaCl2, 1 mM MgCl2, 5 mM glucose, and 10 mM HEPES-free acid adjusted to pH 7.4 with NaOH. Test compounds were initially diluted in DMSO before being further diluted into the bath solution, maintaining a final DMSO concentration of less than 0.1% v/v. Recordings of macroscopic currents were conducted in a voltage-clamp setup using an Axopatch 200B Amplifier (Molecular Devices, Sunnyvale, CA), with data sampled at 5 kHz and low-pass filtered at 1 kHz. A ramp protocol was used to generate current–voltage curve relationships. The voltage protocol involved holding the cells at −75 mV, followed by a 200-msec step to −120 mV, a linear ramp to 120 mV over 240 msec at a rate of […], maintaining at 120 mV for 15 msec, and finally stepping back to −120 mV for 100 msec, with this sequence repeated every 5 seconds. […] All data acquisition and analyses were performed using pClamp software version 9.2 (Molecular Devices).
Gold-standard voltage-clamp electrophysiology was used to confirm the inhibitory effects of VU0212387, VU0543336, VU0605768, and VU0544086 on Kir6.1/SUR2B channel activity (Figure 2a–d).
Figure 2. Confirmation of VU0212387, VU0543336, VU0605768, or VU0544086-dependent inhibition of Kir6.1/SUR2B with patch clamp electrophysiology. […] VU compounds tested were (a) VU0212387, (b) VU0543336, (c) VU0605768, or (d) VU0544086. Data mean ± SD current density (n = 3).

Kir6.2/SUR1 = Kir6.2/SUR1 (Homo sapiens, UniProt Q09428); assay: Quantitative thallium flux assay, inhibition, stably transfected T-REx-HEK293 cells; details: for Effect on Kir6.2/SUR1 channel activity: VU0071063 activation or ATP depletion, full range of doses tested (up to 30 µM); for IC50 / IC50 Kir6.2/SUR1, ATP depletion / IC50 Kir6.2/SUR1, VU0071063 activation: thallium flux; for IC50 / IC50 Kir6.2/SUR1, ATP depletion: ATP depletion with sodium cyanide and 2-deoxy-glucose; for IC50 Kir6.2/SUR1, VU0071063 activation: in the presence of 10 uM VU0071063
Sequence of Kir6.2/SUR1 (Q09428 whole entry, species assumed): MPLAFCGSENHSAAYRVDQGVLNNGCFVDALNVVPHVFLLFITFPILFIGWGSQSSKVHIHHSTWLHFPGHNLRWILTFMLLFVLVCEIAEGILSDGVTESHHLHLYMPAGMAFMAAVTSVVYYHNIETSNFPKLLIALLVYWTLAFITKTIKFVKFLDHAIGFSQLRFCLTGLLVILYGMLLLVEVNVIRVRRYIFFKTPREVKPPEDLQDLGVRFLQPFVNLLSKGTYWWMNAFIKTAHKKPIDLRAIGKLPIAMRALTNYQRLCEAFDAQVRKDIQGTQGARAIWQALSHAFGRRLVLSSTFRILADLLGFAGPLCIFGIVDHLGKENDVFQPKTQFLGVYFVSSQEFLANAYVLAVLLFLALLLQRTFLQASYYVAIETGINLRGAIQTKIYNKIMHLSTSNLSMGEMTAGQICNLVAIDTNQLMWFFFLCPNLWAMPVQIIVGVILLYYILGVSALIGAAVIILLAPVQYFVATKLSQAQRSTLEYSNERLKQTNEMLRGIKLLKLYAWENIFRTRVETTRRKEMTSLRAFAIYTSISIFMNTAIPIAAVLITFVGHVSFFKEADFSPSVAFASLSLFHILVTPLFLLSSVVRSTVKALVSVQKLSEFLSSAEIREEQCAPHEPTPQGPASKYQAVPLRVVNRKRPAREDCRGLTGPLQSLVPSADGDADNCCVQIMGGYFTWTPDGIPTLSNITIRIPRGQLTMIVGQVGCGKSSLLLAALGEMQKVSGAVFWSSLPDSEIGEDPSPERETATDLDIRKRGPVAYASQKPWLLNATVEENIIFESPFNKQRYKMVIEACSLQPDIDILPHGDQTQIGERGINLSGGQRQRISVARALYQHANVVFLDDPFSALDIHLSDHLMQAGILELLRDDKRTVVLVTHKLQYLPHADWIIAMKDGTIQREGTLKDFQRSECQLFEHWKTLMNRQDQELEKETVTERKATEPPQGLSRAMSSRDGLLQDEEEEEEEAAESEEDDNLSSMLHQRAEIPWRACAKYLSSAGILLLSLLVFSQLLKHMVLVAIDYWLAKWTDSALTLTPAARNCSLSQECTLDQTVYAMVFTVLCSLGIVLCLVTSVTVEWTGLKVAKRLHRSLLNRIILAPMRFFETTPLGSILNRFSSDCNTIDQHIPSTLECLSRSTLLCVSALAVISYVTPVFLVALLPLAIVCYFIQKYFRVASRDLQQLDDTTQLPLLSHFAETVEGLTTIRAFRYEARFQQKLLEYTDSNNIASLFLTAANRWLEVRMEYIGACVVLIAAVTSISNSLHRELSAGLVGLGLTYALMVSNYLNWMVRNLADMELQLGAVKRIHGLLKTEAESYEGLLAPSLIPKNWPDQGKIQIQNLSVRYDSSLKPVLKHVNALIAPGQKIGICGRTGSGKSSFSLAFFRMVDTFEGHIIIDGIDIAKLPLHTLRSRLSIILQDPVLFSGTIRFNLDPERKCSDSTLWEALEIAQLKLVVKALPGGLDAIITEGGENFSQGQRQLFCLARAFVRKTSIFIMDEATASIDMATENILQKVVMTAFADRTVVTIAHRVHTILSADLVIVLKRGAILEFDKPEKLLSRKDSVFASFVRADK
Sequence of Kir6.2/SUR1 (Q14654 whole entry partner, species assumed): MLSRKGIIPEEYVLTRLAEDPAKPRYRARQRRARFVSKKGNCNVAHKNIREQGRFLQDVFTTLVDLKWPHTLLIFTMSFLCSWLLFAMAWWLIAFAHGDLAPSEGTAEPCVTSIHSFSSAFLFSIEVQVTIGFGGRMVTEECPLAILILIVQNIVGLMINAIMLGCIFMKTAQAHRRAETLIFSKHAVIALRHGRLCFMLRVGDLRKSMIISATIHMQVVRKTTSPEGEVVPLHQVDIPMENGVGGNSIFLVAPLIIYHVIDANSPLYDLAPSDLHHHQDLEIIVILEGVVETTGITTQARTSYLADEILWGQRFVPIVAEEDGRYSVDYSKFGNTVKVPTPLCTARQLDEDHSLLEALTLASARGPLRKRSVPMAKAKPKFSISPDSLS
Method: Briefly, T-Rex-HEK293 cells underwent co-transfection with pcDNA5/TO-Kir6.1 or pcDNA5/TO-Kir6.2 (inducible expression) and pcDNA3.1-SUR2B or pcDNA3.1-SUR1 (constitutive expression) using Lipofectamine LTX following the manufacturer’s instructions and were then subjected to selection with antibiotics. Monoclonal cell lines were established through limiting dilution and characterization in thallium flux assays described below. […] KATP channel selectivity assays were performed in HEK293 cells transiently transfected with the indicated subunit using Lipofectamine LTX. The cells were incubated for 48 h after transfection before performing thallium flux assays.
Thallium flux assays were conducted using the established methods. Stably transfected T-REx-HEK-293 cells expressing Kir6.2/SUR1 or Kir6.1/SUR2B were cultured overnight in polyamine-coated plates (black-walled, clear-bottomed; BD, Bedford, MA) at a density of 20,000 cells in 20 µl per well of cell culture media. The expression of Kir6.2/SUR1 or Kir6.1/SUR2B channels was induced by treating cells with 1 µg/ml tetracycline overnight. The following day, cells were rinsed with an assay buffer (Hanks’ Balanced Salt Solution supplied with 20 mM HEPES), loaded with the thallium-sensor dye Brilliant Thallos-AM AM (Ion Bioscience, San Marcos, TX) for 1 h, and then washed again with assay buffer to remove unincorporated dye. […] To activate KATP channels independent of activators with ATP-depletion method, cells were treated with a cocktail of metabolic inhibitors (2.5 mM sodium cyanide and 20 mM 2-deoxy glucose) for 25 min before imagine. Control and test compounds diluted freshly from DMSO stocks into assay buffer were added to wells for four minutes before adding 0.5 mM chloride-free thallium stimulus buffer (Ion Bioscience) to initiate thallium flux through the expressed KATP channels. Thallium flux was recorded from all 384-wells for 2 min before terminating the experiment. […] Selectivity assays against other Kir channels were performed as described previously.
The kinetic fluorescence measurements (F) from each well were normalized to the initial reading (F0), producing static ratios (F/F0) that adjust for variations in cell count and dye uptake. […] The response (maxmin2) was determined by subtracting the min value from the max value. Percent inhibition was calculated by normalizing each well’s response to the positive and negative controls. Concentration–response curves were fitted using a single-site, four-parameter logistic function in Prism version 4.0 (GraphPad Software Inc., San Diego, CA) to calculate the half-maximal inhibitory concentration (IC50). Statistical comparisons of IC50 values were performed using an extra sum-of-squares F test and the Mann–Whitney test. A p-value of less than 0.05 was considered statistically significant.

[3] = ATP depletion with sodium cyanide and 2-deoxy-glucose, read-out: IC50 Kir6.1/SUR2B, ATP depletion
[4] = channels activated with 10 µM pinacidil, read-out: IC50 Kir6.1/SUR2B, pinacidil activation

SMILES	IC50 (Kir6.1/SUR2B [1]; [3])	IC50 (Kir6.1/SUR2B [1]; [4])	Inhibition of Kir6.1/SUR2B whole-cell current (Kir6.1/SUR2B [2])	Effect on Kir6.2/SUR1 channel activity (Kir6.2/SUR1)	IC50 (Kir6.2/SUR1) [nM]	IC50 Kir6.2/SUR1, ATP depletion (Kir6.2/SUR1)	IC50 Kir6.2/SUR1, VU0071063 activation (Kir6.2/SUR1)
c1ccc2[nH]c(CSc3ncnc4c3oc3ccccc34)nc2c1 [VU0212387, 4-(((1 H-benzo[d]imidazol-2-yl)methyl)thio)benzofuro[3,2-d]pyrimidine]	619 nM and 600 nM	1400 nM	complete KATP channel inhibition	no apparent inhibitory activity; also recorded: no effect	> 30000	no fit	no fit
O=C(NCC(O)(c1ccccc1)C(F)(F)F)c1ccc(OC(F)(F)F)cc1 (stereo not shown) [VU0543336, N-(3,3,3-trifluoro-2-hydroxy-2-phenylpropyl)-4-(trifluoromethoxy)benzamide]	126 nM and 100 nM	271 nM and 300 nM	complete KATP channel inhibition	no apparent inhibitory activity; also recorded: no effect	> 30000	no fit	no fit
O=C(NCc1cc(-c2ccncc2)n(C2CCCC2)n1)Nc1cccs1 [VU0544086, 1-((1-cyclopentyl-5-(pyridin-4-yl)-1 H-pyrazol-3-yl)methyl)-3-(thiophen-2-yl)urea]	1000 nM	1000 nM	complete KATP channel inhibition	no apparent inhibitory activity; also recorded: no effect	> 30000	no fit	no fit
O=C1c2oc3ccccc3c(=O)c2C(c2cccc(Br)c2)N1CCO (stereo not shown) [VU0605768, 1-(3-bromophenyl)-2-(2-hydroxyethyl)-1,2-dihydrochromeno[2,3-c]pyrrole-3,9-dione]	779 nM	479 nM	complete KATP channel inhibition	no apparent inhibitory activity; also recorded: no effect	> 30000	no fit	no fit
